The values below come from patent publication US6303596A, “Use of taurolidine for treatment of leukemias” (priority 2000, dated 2001).

What all share (type): cell-based, human
Assay [1] relates to tissue factor (TF). As to the kind of experiment: TF activity (coagulation) assay on LPS-induced PBMC treated in whole blood. On the procedure: In order to determine if taurolidine would inhibit LPS-induced TF expression in PBMC in their native milieu, i.e., whole blood, a tissue factor activity assay was performed. LPS (10 ng/ml) and taurolidine (100-500 μg/ml) or equal dilutions of the taurolidine vehicle were added to 5 ml aliquots of heparinized blood, and the blood was incubated in 50 ml centrifuige tubes at 37° C., rotating on a horizontal rotator at 120 rpm. After 4 hours, PBMC were purified from the blood using Histopaque as described previously. Cells were lysed by 3 freeze-thaw cycles, and used as a source of TF in coagulation assays. For these assays, 50 μl of lysate (at 2×10^7 cells/ml) was added to 50 μl pooled normal human plasma, incubated for 30 seconds at 37° C., then 50 μl of 25 MM CaCl2 was added and clot formation assayed using a Diagnostica Stago ST4 coagulometer. Protein content of the cell samples was determined by bicinchoninic acid assay (Pierce Chemical Company, Rockford, Ill.), and used to normalize the clotting data. A standard curve was made with descyto TF reconstituted in PS/PC vesicles according to the method of Mimms et al. (Mimms, et al., "Phospholipid vesicle formation and transmembrane protein incorporation using octyl glucoside," Biochemistry 20:833-840 (1981)). One unit of TF was defined as that which caused clot formation at 50 seconds of incubation with CaCl2. The TF activity assays were performed on LPS-induced PBMC after 4 hour treatment in whole blood. A dose-response effect of taurolidine on monocyte TF is illustrated in Table II. […] Thus, higher concentrations of taurolidine were required to inhibit TF when the PBMC were treated with whole blood when compared to PBMC in culture medium. Further, lower concentrations of taurolidine were required to down-regulate TF expression than were needed to induce apoptosis as described below.
^a Heparinized blood was incubated in the presence of LPS and varying
amounts of taurolidine, then PBMC were purified, and coagulation assays
performed on cell lysates. Units of TF per mg protein were calculated as
described above, and data expressed as percentage of LPS-only ("control")
samples. Data shown are mean ± S.D. of two experiments.

The test system of assay [2] is ECV304 (endothelial cells). As to the kind of experiment: trypan blue exclusion, ECV304. The following applies: ECV304, after taurolidine treatment. On the procedure: FIGS. 10A and 10B depict cell viability and growth rates for ECV304 cell line following taurolidine treatment, in terms of % trypan blue negative cells and % cell number, respectively. Cells were treated with various concentrations of taurolidine for 4 hours in AIM-V+0.01% BCS. After aliquots were collected for LDH assay, the remainder of the culture was rinsed in HBSS and resuspended in RPMI+10% BCS without taurolidine. Counts of trypan blue-negative cells (FIG. 10A), and total cell number (FIG. 10B), were recorded daily thereafter (with the measurement at Day 1 being made immediately after the 4 hour taurolidine treatment). Conditions were: no treatment (open circles); 25 μg/ml taurolidine (closed circles); 50 μg/ml taurolidine (open squares); 100 μg/ml taurolidine (closed squares); and vehicle alone (closed triangles). Doubling times were determined under each condition, and expressed as a percentage of the rate of doubling of untreated cells. These values are located to the right of the growth curves in (FIG. 10B). […]
HL-60 cells treated with 50 μl taurolidine. In these samples, LDH present in the culture medium was 8.3±2.3% of that released by completely lysed cells, compared with 2.3±0.8% measured in control cultures. […] After 4 hour treatment, cells were rinsed and returned to growth medium and monitored for viability and growth over the following 3 days. […]

Assay [3] deals with MM6 cells. As to the kind of experiment: cell morphology / size (microscopy, flow cytometry FSC and SSC), MM6. How it is done: FIG. 12A, FIG. 12B, FIG. 12C, and FIG. 12D are flow cytometric analyses depicting changes in cell morphology following taurolidine treatment. MM6 and PBMC were treated for three hours with taurolidine, and then treated and untreated control cells were processed for flow cytometry. Monocytes in PBMC samples were identified by staining with FITC-conjugated anti-CD14, and lymphocytes by FITC-conjugated anti-CD3 and PE-conjugated anti-CD19. FIG. 12A represents untreated MM6 cells; FIG. 12B represents MM6 cells treated with 50 μg/ml taurolidine; FIG. 12C represents untreated PBMC; and FIG. 12D represents PBMC treated with 75 μg/ml taurolidine. M=monocytes; L=lymphocytes.
A Becton-Dickinson FACSCalibur instrument was used for flow cytometric analysis of cells. Assessment of cell diameter (forward scatter; FCS) and granularity (side scatter; SSC).was carried out on unfixed cells. Discrimination between lymphocytes and monocytes was made possible by their characteristic differences in FSC and SSC, and confirmed by staining monocytes with FITC-labeled anti-CD14 antibodies and lymphocytes with a combination of FITC-conjugated anti-CD3 and PE-conjugated anti-CD19. After incubation with taurolidine (with or without concomitant LPS treatment), cells were rinsed twice in phosphate-buffered saline containing 0.1% bovine serum albumin (PBSA) and 1×10^6 cells were resuspended in 0.1 ml PBSA. […]

For the molecule `O=S1(=O)CCN(CN2CCS(=O)(=O)NC2)CN1` [taurolidine, 4,4'-methylenebis(perhydro-1,2,4-thiadiazin 1,1-dioxide)], the activity at 100 µg/mL in assay [1] (Homo sapiens, PBMC, 100 μg/ml taurolidine, 4 h, mean ± S.D. of two experiments, read-out: coagulation activity of LPS-induced PBMC, % of control) stood at 87.7 ± 6.6%. Moreover, the inhibition at 100 µg/mL in assay [1] (Homo sapiens, PBMC, 100 μg/ml taurolidine, 4 h, read-out: decrease of TF activity) amounted to 12%. Moreover, in assay [1] (Homo sapiens, PBMC, 200 μg/ml taurolidine, 4 h, mean ± S.D. of two experiments, read-out: coagulation activity of LPS-induced PBMC, % of control), the activity at 200 µg/mL was 41.7 ± 8%. The inhibition at 200 µg/mL in assay [1] (Homo sapiens, PBMC, 200 μg/ml taurolidine, 4 h, read-out: decrease of TF activity) was approximately 60%. Moreover, the activity at 500 µg/mL in assay [1] (Homo sapiens, PBMC, 500 μg/ml taurolidine, 4 h, mean ± S.D. of two experiments, read-out: coagulation activity of LPS-induced PBMC, % of control) is 26.5 ± 10.6%. Also, the inhibition at 500 µg/mL in assay [1] (Homo sapiens, PBMC, 500 μg/ml taurolidine, 4 h, read-out: loss of TF activity) was approximately 75%. Further, the “reduction of TF activity of LPS-induced monocytes” value in assay [1] (taurolidine as low as 200 μg/ml) is listed as “significant reduction”. Also, the “trypan blue staining during 4 day growth” value in assay [2] is given as “did not demonstrate a significant increase in trypan blue staining”; in assay [2] (listed as Taurolidine), “cells remained trypan blue negative”. In addition, the “cell size by microscopy” value in assay [3] (MM6, 100 μg/ml taurolidine, 4 h) is listed as “smaller than control cells”. For the same molecule, the “decrease in FSC” value in assay [3] (MM6, taurolidine 3 h) is “approximately 30%”.
